Test results taken from the supplement of paper PMC10307832.

Key:
Assay in all cases: relative viability (nuclei count vs DMSO), 5 days (fraction); higher = more cells survive
[1] = tested on: NCI-H1975
Summary of the method: (§1)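 Relative viability was taken as the ratio of nuclei in treated wells to nuclei in vehicle wells. Lung cancer cell lines in 1536-well plates received compounds by pin tool one day after seeding, either one drug alone or a fixed anchor-drug dose plus five library-drug doses (not always all listed) in √10 steps. Nuclei were counted on 4× images after 5 days of treatment, and values are medians of duplicate plates.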

[2] = tested on: PC-3 [JPC-3]
Summary of the method: as §1

[3] = tested on: NCI-H596
Summary of the method: as §1

[4] = tested on: NCI-H1666
Summary of the method: as §1

[5] = tested on: NCI-H1792
Summary of the method: as §1

[6] = tested on: NCI-H322M
Summary of the method: as §1

[7] = tested on: NCI-H23
Summary of the method: as §1

[8] = tested on: NCI-H727
Summary of the method: as §1

[9] = tested on: NCI-H441
Summary of the method: as §1

[10] = tested on: NCI-H647
Summary of the method: as §1

[11] = tested on: NCI-H2342
Summary of the method: as §1

[12] = tested on: LCLC-97TM1
Summary of the method: as §1

[13] = tested on: NCI-H838
Summary of the method: as §1

[14] = tested on: NCI-H358
Summary of the method: as §1

[15] = tested on: NCI-H522
Summary of the method: as §1

[16] = tested on: NCI-H1915
Summary of the method: as §1

[17] = tested on: NCI-H1437
Summary of the method: as §1

[18] = tested on: NCI-H460
Summary of the method: as §1

[19] = tested on: EKVX
Summary of the method: as §1

Question: What does the source list for `CN1CCN(CCOc2cc(OC3CCOCC3)c3c(Nc4c(Cl)ccc5c4OCO5)ncnc3c2)CC1` [Saracatinib] + NC(=O)Nc1cc(-c2cccc(F)c2)sc1C(=O)N[C@H]1CCCNC1 [AZD7762] (partner 0.2 µM)?
Answer: relative viability ([1]; first compound 0.02 µM): 0.812; relative viability ([1]; first compound 0.2 µM): 0.789; relative viability ([1]; first compound 0.6325 µM): 0.659; relative viability ([1]; first compound 2 µM): 0.468; relative viability ([2]; first compound 0.02 µM): 0.859; relative viability ([2]; first compound 0.2 µM): 0.638; relative viability ([2]; first compound 0.6325 µM): 0.573; relative viability ([2]; first compound 2 µM): 0.448; relative viability ([3]; first compound 0.02 µM): 1.12; relative viability ([3]; first compound 0.2 µM): 1.05; relative viability ([3]; first compound 0.6325 µM): 1.14; relative viability ([3]; first compound 2 µM): 0.852; relative viability ([4]; first compound 0.02 µM): 0.956; relative viability ([4]; first compound 0.2 µM): 0.821; relative viability ([4]; first compound 0.6325 µM): 1.07; relative viability ([4]; first compound 2 µM): 0.847; relative viability ([5]; first compound 0.02 µM): 0.618; relative viability ([5]; first compound 0.2 µM): 0.542; relative viability ([5]; first compound 0.6325 µM): 0.831; relative viability ([5]; first compound 2 µM): 0.648; relative viability ([6]; first compound 0.02 µM): 0.593; relative viability ([6]; first compound 0.2 µM): 0.498; relative viability ([6]; first compound 0.6325 µM): 0.552; relative viability ([6]; first compound 2 µM): 0.353; relative viability ([7]; first compound 0.02 µM): 0.243; relative viability ([7]; first compound 0.6325 µM): 0.287; relative viability ([7]; first compound 2 µM): 0.27; relative viability ([8]; first compound 0.02 µM): 0.683; relative viability ([8]; first compound 0.2 µM): 0.522; relative viability ([8]; first compound 0.6325 µM): 0.616; relative viability ([8]; first compound 2 µM): 0.401; relative viability ([9]; first compound 0.02 µM): 1.06; relative viability ([9]; first compound 0.2 µM): 1.16; relative viability ([9]; first compound 0.6325 µM): 1.2; relative viability ([9]; first compound 2 µM): 1.03; relative viability ([10]; first compound 0.02 µM): 0.564; relative viability ([10]; first compound 0.2 µM): 0.509; relative viability ([10]; first compound 0.6325 µM): 0.507; relative viability ([10]; first compound 2 µM): 0.354; relative viability ([11]; first compound 0.02 µM): 0.721; relative viability ([11]; first compound 0.2 µM): 0.471; relative viability ([11]; first compound 0.6325 µM): 0.562; relative viability ([11]; first compound 2 µM): 0.515; relative viability ([12]; first compound 0.02 µM): 0.294; relative viability ([12]; first compound 0.6325 µM): 0.398; relative viability ([12]; first compound 2 µM): 0.265; relative viability ([13]; first compound 0.02 µM): 0.957; relative viability ([13]; first compound 0.2 µM): 0.886; relative viability ([13]; first compound 0.6325 µM): 0.989; relative viability ([13]; first compound 2 µM): 0.852; relative viability ([14]; first compound 0.02 µM): 0.668; relative viability ([14]; first compound 0.2 µM): 0.418; relative viability ([14]; first compound 0.6325 µM): 0.364; relative viability ([14]; first compound 2 µM): 0.318; relative viability ([15]; first compound 0.02 µM): 0.961; relative viability ([15]; first compound 0.2 µM): 0.809; relative viability ([15]; first compound 0.6325 µM): 0.807; relative viability ([15]; first compound 2 µM): 0.822; relative viability ([16]; first compound 0.02 µM): 0.632; relative viability ([16]; first compound 0.2 µM): 0.639; relative viability ([16]; first compound 0.6325 µM): 0.684; relative viability ([16]; first compound 2 µM): 0.696; relative viability ([17]; first compound 0.02 µM): 1.12; relative viability ([17]; first compound 0.2 µM): 1.17; relative viability ([17]; first compound 0.6325 µM): 1.17; relative viability ([17]; first compound 2 µM): 1.07; relative viability ([18]; first compound 0.02 µM): 0.732; relative viability ([18]; first compound 0.2 µM): 0.482; relative viability ([18]; first compound 0.6325 µM): 0.628; relative viability ([18]; first compound 2 µM): 0.596; relative viability ([19]; first compound 0.02 µM): 0.841; relative viability ([19]; first compound 0.6325 µM): 0.659; relative viability ([19]; first compound 2 µM): 0.29
